Source: patent US6579556B2, “Ambient stable beverage” (Lipton, division of Conopco, Inc., priority 2000, dated 2003)
Converted amounts (≈) assume the structure as drawn. Read-outs that look alike come from different tables or passages of the source.

System: yeast Saccharomyces cerevisiae X2180-1B
Experiment: Fungicidal activity / MIC at 50° C. versus 30° C., yeast survival in YEPD broth pH 3.4
Assay type: cell-based
Settings: for Importance: rating as pasteurisation adjunct
Experimental: In the table the minimum inhibitory concentration (MIC) is given for each compound as well as the molecular weight (M.W.), the logPoct and a rating of its importance. […] The logPoct, that is the logarithm of the partition coefficient of the relevant compound in octanol and thus a measure of its […], was determined using […]™ software from the CHEMOFFICE ULRA ENHANCED 2000™ software package (version 5.5) that is commercially available from CambridgeSoft.
(§1) YEPD contained glucose, 20 g/l, peptone 20 g/l and yeast extract 10 g/l. Rows of 30 ml tubes containing 10 ml YEPD, pH 3.4, were equilibrated at the required temperature for 7 minutes in a water bath, before inoculation with 10^4 cells/ml of the yeast Saccharomyces cerevisiae X2180-1B. Tubes were held at temperature for 10 minutes before being cooled rapidly in cold water for 5 minutes. Tubes were then incubated for 48 hours at 25° C. to allow surviving yeasts to grow out, and form discrete colonies.
as §1, §1, §1

[1] = Saccharomyces cerevisiae, minimum inhibitory concentration, 50° C., given as ppm, read-out: MIC50
[2] = Saccharomyces cerevisiae, minimum inhibitory concentration, 50° C., read-out: MIC50
[3] = Saccharomyces cerevisiae, read-out: MIC50

## CCCCCCCCCC=CC=O [2-Dodecenal]
[1]
  MIC50: < 9 µg/mL
[2]
  MIC: < 0.05 mM
  Importance: High (High effects compounds, most preferred, generally showed at least a 5 fold decrease in MIC, minimum inhibitory concentration at 50 °C compared with 30° C.)

## CC(C)C(=O)OCCOc1ccccc1 [2-Phenoxylethyl isobutyrate]
[3]
  MIC: 0.1 mM (≈ 20.8 µg/mL)
  Importance: High (High effects compounds, most preferred, generally showed at least a 5 fold decrease in MIC, minimum inhibitory concentration at 50 °C compared with 30° C.)

## CCCCCCCCCCC=CC=O [2-Tridecenal]
[1]
  MIC50: < 9.8 µg/mL
[2]
  MIC: < 0.05 mM
  Importance: High (High effects compounds, most preferred, generally showed at least a 5 fold decrease in MIC, minimum inhibitory concentration at 50 °C compared with 30° C.)

## CCCCCCCCCC(C)=O [2-Undecanone]
[3]
  MIC: 1 mM (≈ 170 µg/mL)
  Importance: High (High effects compounds, most preferred, generally showed at least a 5 fold decrease in MIC, minimum inhibitory concentration at 50 °C compared with 30° C.)

## C=CCOC(=O)CCC1CCCCC1 [Allyl cyclohexanepropionate]
[2]
  MIC: 1 mM (≈ 196 µg/mL)
  Importance: High (High effects compounds, most preferred, generally showed at least a 5 fold decrease in MIC, minimum inhibitory concentration at 50 °C compared with 30° C.)

## CCCCCOC(=O)CCCCC [Amyl hexanoate]
[2]
  MIC: 2 mM (≈ 373 µg/mL)
  Importance: High (High effects compounds, most preferred, generally showed at least a 5 fold decrease in MIC, minimum inhibitory concentration at 50 °C compared with 30° C.)

## CCCCCCCC(=O)OCCCCC [Amyl octanoate]
[2]
  MIC: 60 mM (≈ 12900 µg/mL)
  Importance: Mod

## O=C(c1ccccc1)C(O)c1ccccc1 (centres unmarked) [Benzoin]
[3]
  MIC: 10 mM (≈ 2120 µg/mL)
  Importance: 10

## O=C(OCc1ccccc1)c1ccccc1 [Benzyl benzoate]
[2]
  MIC: 20 mM (≈ 4240 µg/mL)
  Importance: Mod

## O=C(OCc1ccccc1)c1ccccc1O [Benzyl salicylate]
[2]
  MIC: 50 mM (≈ 11400 µg/mL)
  Importance: Low

## CC(=O)OC1CC2CCC1(C)C2(C)C (centres unmarked) [Bornyl acetate]
[2]
  MIC: 2 mM
  Importance: Low

## C=CCCCCCCCCC(=O)OCCCC [Butyl 10-undecenoate]
[2]
  MIC: 40 mM (≈ 9620 µg/mL)
  Importance: Mod

## CCCCCCC(=O)OCCCC [Butyl heptanoate]
[2]
  MIC: 5 mM (≈ 931 µg/mL)
  Importance: High (High effects compounds, most preferred, generally showed at least a 5 fold decrease in MIC, minimum inhibitory concentration at 50 °C compared with 30° C.)

## CCCCCCCCCCCC(=O)OCCCC [Butyl laurate]
[2]
  MIC: 100 mM (≈ 25600 µg/mL)
  Importance: Low

## C=C(C)C1CC=C(C)C(OC(=O)CC)C1 (centres unmarked) [Carvyl propionate]
Minimum inhibitory concentration, 50° C.
  MIC50: 5 mM
  Importance: Mod

## CCCCCCCCCCOC(=O)CCC [Decyl butyrate]
[2]
  MIC: 70 mM (≈ 16000 µg/mL)
  Importance: Low

## CCCCCCCCCCOC(=O)CC [Decyl propionate]
[2]
  MIC: 50 mM (≈ 10700 µg/mL)
  Importance: High (High effects compounds, most preferred, generally showed at least a 5 fold decrease in MIC, minimum inhibitory concentration at 50 °C compared with 30° C.)

## C=CCCCCCCCCC(=O)OCC [Ethyl 10-undecenoate]
[2]
  MIC: 50 mM (≈ 10600 µg/mL)
  Importance: High (High effects compounds, most preferred, generally showed at least a 5 fold decrease in MIC, minimum inhibitory concentration at 50 °C compared with 30° C.)

## CCCCCCCCCC(=O)OCC [Ethyl decanoate]
[2]
  MIC: 40 mM (≈ 8010 µg/mL)
  Importance: High (High effects compounds, most preferred, generally showed at least a 5 fold decrease in MIC, minimum inhibitory concentration at 50 °C compared with 30° C.)

## CCCCCCCCCCCC(=O)OCC [Ethyl laurate]
[2]
  MIC: 80 mM (≈ 18300 µg/mL)
  Importance: Mod

## CCCCCCCCC(=O)OCC [Ethyl nonanoate]
[2]
  MIC: 10 mM (≈ 1860 µg/mL)
  Importance: High (High effects compounds, most preferred, generally showed at least a 5 fold decrease in MIC, minimum inhibitory concentration at 50 °C compared with 30° C.)

## CCCCCCCCCCC(=O)OCC [Ethyl undecanoate]
[2]
  MIC: 50 mM (≈ 10700 µg/mL)
  Importance: Mod

## CCCC(=O)OC/C=C(\C)CCC=C(C)C [Geranyl butyrate]
[2]
  MIC: 40 mM (≈ 8970 µg/mL)
  Importance: High (High effects compounds, most preferred, generally showed at least a 5 fold decrease in MIC, minimum inhibitory concentration at 50 °C compared with 30° C.)

## CCC(=O)OC/C=C(\C)CCC=C(C)C [Geranyl propionate]
[2]
  MIC: 12 mM (≈ 2520 µg/mL)
  Importance: High (High effects compounds, most preferred, generally showed at least a 5 fold decrease in MIC, minimum inhibitory concentration at 50 °C compared with 30° C.)

## CCCCCCCOC(=O)CCC [Heptyl butyrate]
[2]
  MIC: 2 mM (≈ 373 µg/mL)
  Importance: High (High effects compounds, most preferred, generally showed at least a 5 fold decrease in MIC, minimum inhibitory concentration at 50 °C compared with 30° C.)

## CCCCCCCCCCCCCCCCO [Hexadecanol]
[2]
  MIC: 100 mM (≈ 24200 µg/mL)
  Importance: Low

## CCCCCCOC(=O)CCCCC [Hexyl hexanoate]
[2]
  MIC: 30 mM (≈ 6010 µg/mL)
  Importance: High (High effects compounds, most preferred, generally showed at least a 5 fold decrease in MIC, minimum inhibitory concentration at 50 °C compared with 30° C.)

## CCCCCCCC(=O)OCCCCCC [Hexyl octanoate]
[2]
  MIC: 10 mM (≈ 2280 µg/mL)
  Importance: Mod

## CCCCCC(=O)OCCC(C)C [Isoamyl hexanoate]
[2]
  MIC: 5 mM (≈ 931 µg/mL)
  Importance: High (High effects compounds, most preferred, generally showed at least a 5 fold decrease in MIC, minimum inhibitory concentration at 50 °C compared with 30° C.)

## CCCCCCCCCCCC(=O)OCCC(C)C [Isoamyl laurate]
  Importance: Low

## CC(C)CCOC(=O)c1ccccc1O [Isoamyl salicylate]
[2]
  MIC: 15 mM (≈ 3120 µg/mL)
  Importance: Mod

## CCCCCCCCCCCCOC(C)=O [Lauryl acetate]
[2]
  MIC: 40 mM
  Importance: Mod

## C=CC(C)(CCC=C(C)C)OC(C)=O (centres unmarked) [Linalyl acetate]
[3]
  MIC: 10 mM
  Importance: Mod

## C=CC(C)(CCC=C(C)C)OC(=O)CC (centres unmarked) [Linalyl propionate]
[2]
  MIC: 20 mM (≈ 4210 µg/mL)
  Importance: Mod

## CCCCCCCCCC(=O)OC [Methyl decanoate]
[2]
  MIC: 2 mM (≈ 373 µg/mL)
  Importance: High (High effects compounds, most preferred, generally showed at least a 5 fold decrease in MIC, minimum inhibitory concentration at 50 °C compared with 30° C.)

## CCCCCCCCCCCC(=O)OC [Methyl laurate]
[2]
  MIC: 40 mM (≈ 8570 µg/mL)
  Importance: High (High effects compounds, most preferred, generally showed at least a 5 fold decrease in MIC, minimum inhibitory concentration at 50 °C compared with 30° C.)

## CCCCCCCCCCCCCC(=O)OC [Methyl myristate]
[2]
  MIC: 60 mM (≈ 14500 µg/mL)
  Importance: Low

## CCCCCCCCC(=O)OC [Methyl nonanoate]
[2]
  MIC: 2 mM (≈ 345 µg/mL)
  Importance: High (High effects compounds, most preferred, generally showed at least a 5 fold decrease in MIC, minimum inhibitory concentration at 50 °C compared with 30° C.)

## CCCCCCCCCCC(=O)OC [Methyl undecanoate]
[2]
  MIC: 50 mM (≈ 10000 µg/mL)
  Importance: High (High effects compounds, most preferred, generally showed at least a 5 fold decrease in MIC, minimum inhibitory concentration at 50 °C compared with 30° C.)

## CC=CCCCCCCCC(=O)OC [Methyl-9-undecenoate]
[2]
  MIC: 40 mM (≈ 7930 µg/mL)
  Importance: High (High effects compounds, most preferred, generally showed at least a 5 fold decrease in MIC, minimum inhibitory concentration at 50 °C compared with 30° C.)

## CCCCCCCCCCCCCC=O [Myristaldehyde]
[2]
  MIC: 40 mM (≈ 8500 µg/mL)
  Importance: Mod
